One test addresses HLA-A*02 (Homo sapiens, UniProt P04439, D140Y/D185E/D98H/E176V/E277Q/G131W/G231S/I119V/I121R/I166T/I218V/N151K/N90K/P208A/P217A/Q86G/Q94H/R138H/R169H). The experiment in a line: UV-ligand exchange / peptide binding to MHC class I (beta2m ELISA). To be noted: peptide exchange yield. In short, it runs like this: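 Peptide-MHC complexes generated by UV-mediated exchange of a photocleavable ligand for the test peptide. Exchange yield measured by streptavidin-capture ELISA detecting β2m of stabilized complexes (HRP anti-β2m, TMB, 450 nm). Samples diluted 100-fold, quantified against refolded HLA-A*0201 monomer standards (15-500 ng/ml).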
(In general: ELISA stands for enzyme-linked immunosorbent assay.)

The test system of test [1] is CD8+ T cells of healthy HLA-A*02+ donors. The experiment in a line: In vitro immunogenicity: priming of CD8+ T cells with aAPCs loaded with peptide/MHC and anti-CD28, multimer staining. It is filed as cell-based, human. To be noted: Table 11A; for donors (positive): percentage of positive donors; for wells (positive): percentage of positive wells. The text has this: In order to obtain information regarding the immunogenicity of the TUMAPs of the present invention, the inventors performed investigations using an in vitro T-cell priming assay based on repeated stimulations of CD8+ T cells with artificial antigen presenting cells (aAPCs) loaded with peptide/MHC complexes and anti-CD28 antibody.
In order to perform in vitro stimulations by artificial antigen presenting cells loaded with peptide-MHC complex (pMHC) and anti-CD28 antibody, the inventors first isolated CD8+ T cells from fresh HLA-A*02 leukapheresis products via positive selection using CD8 microbeads (Miltenyi Biotec, Bergisch-Gladbach, Germany) of healthy donors obtained from the University clinics Mannheim, Germany, after informed consent.
PBMCs and isolated CD8+ lymphocytes were incubated in T-cell medium (TCM) until use consisting of RPMI-Glutamax (Invitrogen, Karlsruhe, Germany) supplemented with 10% heat inactivated human AB serum (PAN-Biotech, Aidenbach, Germany), 100 U/ml Penicillin/100 μg/ml Streptomycin (Cambrex, Cologne, Germany), 1 mM sodium pyruvate (CC Pro, Oberdorla, Germany), 20 μg/ml Gentamycin (Cambrex). 2.5 ng/ml IL-7 (PromoCell, Heidelberg, Germany) and 10 U/ml IL-2 (Novartis Pharma, Nürnberg, Germany) were also added to the TCM at this step.
Generation of pMHC/anti-CD28 coated beads, T-cell stimulations and readout was performed in a highly defined in vitro system using four different pMHC molecules per stimulation condition and 8 different pMHC molecules per readout condition.
The purified co-stimulatory mouse IgG2a anti human CD28 Ab 9.3 (Jung et al., 1987) was chemically biotinylated using Sulfo-N-hydroxysuccinimidobiotin as recommended by the manufacturer (Perbio, Bonn, Germany). Beads used were 5.6 μm diameter streptavidin coated polystyrene particles (Bangs Laboratories, Illinois, USA).
pMHC used for positive and negative control stimulations were A*0201/MLA-001 (peptide […] from modified Melan-A/MART-1) and A*0201/DDX5-001 ([…] from DDX5), respectively.
800.000 beads/200 μl were coated in 96-well plates in the presence of 4×12.5 ng different biotin-pMHC, washed and 600 ng biotin anti-CD28 were added subsequently in a volume of 200 μl. Stimulations were initiated in 96-well plates by co-incubating […] CD8+ T cells with 2×10^5 washed coated beads in 200 μl TCM supplemented with 5 ng/ml IL-12 (PromoCell) for 3 days at 37° C. Half of the medium was then exchanged by fresh TCM supplemented with 80 U/ml IL-2 and incubating was continued for 4 days at 37° C. This stimulation cycle was performed for a total of three times. For the pMHC multimer readout using 8 different pMHC molecules per condition, a two-dimensional combinatorial coding approach was used as previously described (Andersen et al., 2012) with minor modifications encompassing coupling to 5 different fluorochromes. Finally, multimeric analyses were performed by staining the cells with Live/dead near IR dye (Invitrogen, Karlsruhe, Germany), CD8-FITC antibody clone SK1 (BD, Heidelberg, Germany) and fluorescent pMHC multimers. For analysis, a BD LSRII SORP cytometer equipped with appropriate lasers and filters was used. Peptide specific cells were calculated as percentage of total CD8+ cells. Evaluation of multimeric analysis was done using the FlowJo software (Tree Star, Oreg., USA). In vitro priming of specific multimer+ CD8+ lymphocytes was detected by comparing to negative control stimulations.
Exemplary flow cytometry results after TUMAP-specific multimer staining for three peptides of the invention are shown in FIG. 3 and FIG. 4 together with corresponding negative controls.
CD8+ T cells were primed using artificial APCs coated with anti-CD28 mAb and HLA-A*02 in complex with IMA-APOB-002 (Seq ID No 7) peptide (A, right panel) or IMA-APOB-003 (B, right panel, Seq ID No 1), or IMA-ALDH1L1-001 (C, right panel, Seq ID No 2), respectively. […]

Where [2] appears, read: Table 10A, UV-ligand exchange, β2m ELISA.

Regarding “1 (VMAPFTMTI; listed as Homo sapiens) [compound 1]”, in the test with HLA-A*02 (setting [2]), the “Peptide exchange (MHC class I binding score)” value (shortened to “Peptide exchange”) is listed as “++++ (>=75% = ++++)”. For the same substance, the “Peptide exchange” value with HLA-A*02 (Table 10B, HLA-A*02 peptides) is given as ““++++” (≥75% = ++++)”. In test [1], the “donors (positive)” value is reported as “++++ (>=70% = ++++)” and the “wells (positive)” value is “++ (20%-49% = ++)”.
“2 (KLQAGTVFV; listed as Homo sapiens) [compound 2]”: in the test with HLA-A*02 (setting [2]), the “Peptide exchange” value is “+++ (50%-75% = +++)”. For the same substance, the “Peptide exchange” value with HLA-A*02 (Table 10B, HLA-A*02 peptides) was ““+++” (≥50 = +++)”. Also, in test [1], the “donors (positive)” value is recorded as “++++ (>=70% = ++++)” and the “wells (positive)” value is recorded as “++ (20%-49% = ++)”.
“4 (KLQDFSDQL; listed as Homo sapiens) [compound 4]”: the “Peptide exchange” value with HLA-A*02 (setting [2]) is reported as “++++ (>=75% = ++++)”. Moreover, the “Peptide exchange” value with HLA-A*02 (Table 10B, HLA-A*02 peptides) was ““++++” (≥75% = ++++)”. Besides, in test [1], the “donors (positive)” value was “++++ (>=70% = ++++)” and the “wells (positive)” value is “+ (<20% = +)”.
Consider “6 (KLSPTVVGL; listed as Homo sapiens) [compound 6]”, for which the “Peptide exchange” value with HLA-A*02 (setting [2]) is on record as “+++ (50%-75% = +++)”. In addition, the “Peptide exchange” value with HLA-A*02 (Table 10B, HLA-A*02 peptides) is reported as ““+++” (≥50 = +++)”. Moreover, in test [1], the “donors (positive)” value is given as “++ (20%-49% = ++)” and the “wells (positive)” value is on record as “+ (<20% = +)”.
For the substance “7 (ALVDTLKFV; listed as Homo sapiens) [compound 7]”, in the test with HLA-A*02 (setting [2]), the “Peptide exchange” value is “++++ (>=75% = ++++)”. For the same substance, the “Peptide exchange” value with HLA-A*02 (Table 10B, HLA-A*02 peptides) is ““++++” (≥75% = ++++)”. Further, in test [1], the “donors (positive)” value was “++++ (>=70% = ++++)” and the “wells (positive)” value is “+ (<20% = +)”.
Taken in the same sequence, the figures for “10 (SLLEEFDFHV; listed as Homo sapiens) [compound 10]” were “++++ (>=75% = ++++)”, ““++++” (≥75% = ++++)”, “++ (20%-49% = ++)” and “+ (<20% = +)”.
Consider “11 (SLSQELVGV; listed as Homo sapiens) [compound 11]”, for which the “Peptide exchange” value is on record as “+++ (50%-75% = +++)” with HLA-A*02 (setting [2]) and ““+++” (≥50 = +++)” with HLA-A*02 (Table 10B, HLA-A*02 peptides). Moreover, the “donors (positive)” value in test [1] is “++ (20%-49% = ++)”. The “wells (positive)” value in test [1] is recorded as “+ (<20% = +)”.
“12 (FLAELAYDL; listed as Homo sapiens) [compound 12]”: in the test with HLA-A*02 (setting [2]), the “Peptide exchange” value is “++++ (>=75% = ++++)”. In the test with HLA-A*02 (Table 10B, HLA-A*02 peptides), the “Peptide exchange” value is given as ““++++” (≥75% = ++++)”. Besides, in test [1], the “donors (positive)” value was “++++ (>=70% = ++++)” and the “wells (positive)” value is listed as “+ (<20% = +)”.
For the substance “14 (ALADLTGTVV; listed as Homo sapiens) [compound 14]”, the “Peptide exchange” value with HLA-A*02 (setting [2]) was “++++ (>=75% = ++++)”. Moreover, the “Peptide exchange” value with HLA-A*02 (Table 10B, HLA-A*02 peptides) was ““++++” (≥75% = ++++)”. In addition, in test [1], the “donors (positive)” value is given as “++ (20%-49% = ++)” and the “wells (positive)” value is given as “+ (<20% = +)”.
Taken in the same sequence, the figures for “15 (LLYGHTVTV; listed as Homo sapiens) [compound 15]” were “++++ (>=75% = ++++)”, ““++++” (≥75% = ++++)”, “++++ (>=70% = ++++)” and “++ (20%-49% = ++)”.
Taken in the same sequence, the figures for “16 (SLLGGNIRL; listed as Homo sapiens) [compound 16]” were “++++ (>=75% = ++++)”, ““++++” (≥75% = ++++)”, “++++ (>=70% = ++++)” and “++ (20%-49% = ++)”.
Take “219 (GVMAGDIYSV; listed as Homo sapiens) [compound 219]”: in the test with HLA-A*02 (setting [2]), the “Peptide exchange” value is reported as “++++ (>=75% = ++++)”. Besides, the “Peptide exchange” value in the test with HLA-A*02 (Table 10B, HLA-A*02 peptides) is ““++++” (≥75% = ++++)”. Also, in test [1], the “donors (positive)” value is recorded as “++++ (>=70% = ++++)” and the “wells (positive)” value is recorded as “+ (<20% = +)”.
Turning to “224 (ALASVIKEL; listed as Homo sapiens) [compound 224]”, the “Peptide exchange” value in the test with HLA-A*02 (setting [2]) is recorded as “++++ (>=75% = ++++)”. Further, the “Peptide exchange” value with HLA-A*02 (Table 10B, HLA-A*02 peptides) is given as ““+++” (≥50 = +++)”. In test [1], the “donors (positive)” value is reported as “+++ (50%-69% = +++)” and the “wells (positive)” value is recorded as “+ (<20% = +)”.
With “225 (KMDPVAYRV; listed as Homo sapiens) [compound 225]”, the “Peptide exchange” value was “+++ (50%-75% = +++)” with HLA-A*02 (setting [2]) and ““+++” (≥50 = +++)” in the test with HLA-A*02 (Table 10B, HLA-A*02 peptides). Moreover, in test [1], the “donors (positive)” value is “++++ (>=70% = ++++)”. The “wells (positive)” value in test [1] is listed as “+++ (50%-69% = +++)”.
In the case of “226 (AVLGPLGLQEV; listed as Homo sapiens) [compound 226]”, the “Peptide exchange” value in the test with HLA-A*02 (setting [2]) is reported as “+++ (50%-75% = +++)”. In addition, in the test with HLA-A*02 (Table 10B, HLA-A*02 peptides), the “Peptide exchange” value is reported as ““+++” (≥50 = +++)”. In addition, in test [1], the “donors (positive)” value was “++++ (>=70% = ++++)” and the “wells (positive)” value is given as “+ (<20% = +)”.
As for “227 (ALLKVNQEL; listed as Homo sapiens) [compound 227]”, the “Peptide exchange” value with HLA-A*02 (setting [2]) is “++++ (>=75% = ++++)”; with HLA-A*02 (Table 10B, HLA-A*02 peptides), ““++++” (≥75% = ++++)”. For the same substance, in test [1], the “donors (positive)” value was “+++ (50%-69% = +++)”. Besides, the “wells (positive)” value in test [1] is listed as “+ (<20% = +)”.
Taken in the same sequence, the figures for “228 (YLITSVELL; listed as Homo sapiens) [compound 228]” were “++++ (>=75% = ++++)”, ““++++” (≥75% = ++++)”, “++ (20%-49% = ++)” and “+ (<20% = +)”.
With “230 (VLTEFTREV; listed as Homo sapiens) [compound 230]”, the “Peptide exchange” value with HLA-A*02 (setting [2]) was “++++ (>=75% = ++++)”. The “Peptide exchange” value with HLA-A*02 (Table 10B, HLA-A*02 peptides) is on record as ““++++” (≥75% = ++++)”. Besides, in test [1], the “donors (positive)” value was “++++ (>=70% = ++++)” and the “wells (positive)” value is “+ (<20% = +)”.
Consider “232 (KLAEIVKQV; listed as Homo sapiens) [compound 232]”, for which the “Peptide exchange” value with HLA-A*02 (setting [2]) was “++++ (>=75% = ++++)”; in the test with HLA-A*02 (Table 10B, HLA-A*02 peptides), ““++++” (≥75% = ++++)”. Besides, the “donors (positive)” value in test [1] is listed as “+++ (50%-69% = +++)”. Moreover, in test [1], the “wells (positive)” value is recorded as “+ (<20% = +)”.
Consider “301 (VLADFGARV; listed as Homo sapiens) [compound 301]”, for which, in the test with HLA-A*02 (setting [2]), the “Peptide exchange” value is reported as “+++ (50%-75% = +++)”. In test [1], the “donors (positive)” value was “++++ (>=70% = ++++)” and the “wells (positive)” value is “++ (20%-49% = ++)”.
Taken in the same sequence, the figures for “304 (SLIDQFFGV; listed as Homo sapiens) [compound 304]” were “++++ (>=75% = ++++)”, “++++ (>=70% = ++++)” and “+ (<20% = +)”.
